# Counter-ions that a name gives are not always drawn. Like-named read-outs stand apart in the source and are kept apart here.
# Experiments:
# [1] = tested on: mtDNA production in human PBMCs
# HBVWT^C2 [2] = assay: Antiviral effect in chronically HBVWT^C2-infected PXB-mice; format: in vivo; settings: for reduction of serum HBVWT^C2-DNA copies: day 21
# [3] = Body weights and serum human albumin in treated PXB-mice; format: in vivo
# HBV [4] = assay: Combination of E-CFCP with GLS4, HBV-DNA production by HepG2.2.15 cells; format: cell-based, Hepatitis B virus
# [5] = tested on: mtDNA production in PXB-cells
# [6] = Cytotoxicity, MTT assay, MT-2 cells; format: cell-based; settings: human
# [7] = Cytotoxicity, MTT assay, HepG2 cells; format: cell-based; settings: human
# [8] = Intracellular concentration of compound in HepG2.2.15 cells; format: in vitro ADME, human; settings: 100 µM, 6 hours incubation
# HIV-1LAI = assay: Anti-HIV assay; format: cell-based; settings: Human immunodeficiency virus 1, read-out: IC50^MTT
# [9] = tested on: MOT-4 cells and human primary peripheral blood mononuclear cells; assay: Cell proliferation assays in MOT-4 cells and human PBMCs; format: cell-based
# [10] = Acid resistance: anti-HBV activity after pH 2 exposure; format: physicochemical; settings: pH 2, 5 and 60 minutes at 37 °C, then tested in HepG2.2.15 cells
# HBVWT^D1 [11] = settings: high concentrations (100 and 1,000 nM), HepG2.2.15 cells
# HBVWT^D1 [12] = assay: microbe, parasite or virus in culture; settings: Hepatitis B virus, HepG2.2.15, read-out: IC50^qPCR_cell
# HBVWT^D1 [13] = assay: microbe, parasite or virus in culture; format: cell-based, Hepatitis B virus
# [14] = Cytotoxicity, Neutral Red staining assay, primary hepatocytes; settings: human
# [15] = Cytotoxicity, MTT assay, PXB-cells; format: cell-based; settings: human
# HBVWT^C2 [16] = assay: Anti-HBV qPCR assay in HBV-exposed PXB-cells; format: cell-based, Hepatitis B virus; settings: for IC50: Hepatitis B virus, read-out: IC50^qPCR_cell; for IC95^qPCR_sup / IC95^qPCR_cell: PXB-cells; for IC95^qPCR_sup: HBVWT^C2, HBV-DNA in culture medium blocked by 95%; for IC95^qPCR_cell: HBVWT^C2, intracellular HBV-DNA blocked by 95%
# [17] = Cytotoxicity, MTT assay, Huh7 cells; format: cell-based; settings: human
# [18] = Cytotoxicity, LDH release assay, primary hepatocytes; settings: human
# HBV [19] = settings: 90 mg/kg/day, 3-week administration, HBV-infected PXB-mice; cited from earlier work
# [20] = Intracellular concentrations of phosphorylated forms in HepG2.2.15 cells; format: in vitro ADME, human
# [21] = 10 µM, 6 days of culture without compound
smiles,measurement,setting,value
C=C1C(n2cnc3c(=O)[nH]c(N)nc32)CC(O)C1(C#N)CO (stereo not drawn) [CMCdG],inhibition of mtDNA production (in words),[1]; human PBMCs and PXB-cells,non-toxic
N#C[C@]1(CO)/C(=C\F)[C@@H](n2cnc3c(=O)[nH]c(N)nc32)C[C@@H]1O [E-CFCP],reduction of serum HBVWT^C2-DNA copies,HBVWT^C2 [2]; 0.02 mg/kg/day for two weeks,2.2±0.06 log
same,persistence of reduction after administration cessation,HBVWT^C2 [2]; 0.2 mg/kg/day,≥ 3 weeks
same,reduction of serum HBVWT^C2-DNA copies,HBVWT^C2 [2]; 0.2 mg/kg/day for two weeks,2.6±0.1 log
same,persistence of reduction following treatment cessation,"HBVWT^C2 [2]; PXB-mice, 0.02∼0.2 mg/kg/day",1–3 weeks
same,reduction of HBVWT^C2-viremia,"HBVWT^C2 [2]; once-daily peroral, 2 weeks, 0.02∼0.2 mg/kg/day",2–3 logs
same,changes in body weights or serum human albumin levels,"[3]; 0.2 mg/kg/day for 2 weeks, HBVWT^C2-infected PXB-mice",No significant changes
same,changes of body weights and human serum albumin over 8 weeks,"[3]; once daily 0.2 mg/kg/day, E-CFCP-receiving vs ETV-receiving mice",no significant changes
same,combination effect with GLS4 (Chou-Talalay Method),HBV [4]; 1 and 10 nM E-CFCP with GLS4 at the same concentration,synergism was observed
same,combination effect with GLS4 (Chou-Talalay Method),"HBV [4]; 100 and 1,000 nM E-CFCP with GLS4 at the same concentration",no synergism was detected
same,Mitotox50,"[5]; PXB-cells, mtDNA production",29.6 µM
same,CC50,[6]; MT-2 cells,306 µM
same,CC50,[7]; HepG2 cells,115 µM
same,intracellular concentration,[8],approximately 200 pmol/2×10^6 cells
same,IC50,HIV-1LAI,0.205 ± 0.0238 µM
same,cell proliferation safety profile (in words),[9],highly favorable safety profiles
same,anti-HBV activity after pH 2 exposure,[10],comparable to pH 2-unexposed E-CFCP
same,inhibition of HBV-DNA production,HBVWT^D1 [11],100%
same,IC50,HBVWT^D1 [12],0.0018 µM
same,HBV-DNA synthesis blockade,HBVWT^D1 [13]; [21],100%
same,HBV-DNA synthesis blockade,"HBVWT^D1 [13]; 10 µM, 16 days of culture without compound",> 80%
same,% inhibition of HBVWT^D1-DNA production,"HBVWT^D1 [13]; 10 µM, exposed 11 days, 14 days of culture without compound",> 90%
same,persistence of anti-HBV activity (>80% Inhibition) after compound removal,HBVWT^D1 [13]; HepG2.2.15 cells,~16 days
same,CC50,[14]; primary hepatocytes,> 100 µM
same,Mitotox50,"[1]; human PBMCs, mtDNA production",38.2 µM
same,CC50,[15]; PXB-cells,> 500 µM
same,IC50,HBVWT^C2 [16],0.01 nM
same,IC95^qPCR_sup,HBVWT^C2 [16],0.0035 µM
same,IC95^qPCR_cell,HBVWT^C2 [16],0.339 µM
same,CC50,[17]; Huh7 cells,> 500 µM
same,CC50,[18]; primary hepatocytes,> 100 µM
"C=C1[C@H](CO)[C@@H](O)C[C@@H]1n1cnc2c(=O)[nH]c(N)nc21 [ETV, entecavir]",reduction of serum HBVWT^C2-DNA copy numbers,"HBVWT^C2 [2]; 0.02 mg/kg/day, two weeks, at conclusion of administration (day 14)",2.0±0.07 log
same,Mitotox50,[5]; human,35.2 µM
same,inhibition of HBV-DNA production,HBVWT^D1 [11],< 100%
same,HBV-DNA synthesis blockade,HBVWT^D1 [13]; [21],< 80%
same,Mitotox50,[1]; human,40.4 µM
same,IC50,HBVWT^C2 [16],0.13 nM
same,IC95^qPCR_sup,HBVWT^C2 [16],0.079 µM
same,IC95^qPCR_cell,HBVWT^C2 [16],0.859 µM
"CC(C)OC(=O)[C@H](C)N[P@](=O)(CO[C@H](C)Cn1cnc2c(N)ncnc21)Oc1ccccc1 [TAF, tenofovir alafenamide, reference compound]",CC50,[6],21 µM
same,CC50,[7],22 µM
same,inhibition of HBV-DNA production,HBVWT^D1 [11],< 100%
same,inhibition at 1 µM,"HBVWT^D1 [13]; Hepatitis B virus, HepG2.2.15, read-out: HBV-DNA production inhibition",90%
same,CC50,[14],26 µM
same,CC50,[15],8.2 µM
same,IC50,HBVWT^C2 [16],0.59 nM
same,IC95^qPCR_sup,HBVWT^C2 [16],0.09 µM
same,IC95^qPCR_cell,HBVWT^C2 [16],0.513 µM
same,CC50,[17],34 µM
same,CC50,[18],97 µM
"CC(C)OC(=O)OCOP(=O)(CO[C@H](C)Cn1cnc2c(N)ncnc21)OCOC(=O)OC(C)C [TDF, tenofovir disoproxil fumarate]",viral load reduction,HBV [19],approximately 1.5 logs
C[C@@H](Cn1cnc2c(N)ncnc21)OCP(=O)(O)OP(=O)(O)OP(=O)(O)O [TFV-DP],intracellular phosphorylated form (in words),[20],not detected by day 3 and beyond
N#C[C@]1(CO)/C(=C/F)[C@@H](n2cnc3c(=O)[nH]c(N)nc32)C[C@@H]1O [Z-CFCP],IC50,HBVWT^D1 [12],0.414 µM
"Nc1ccn([C@H]2CC[C@@H](CO)O2)c(=O)n1 [zalcitabine/ddC, zalcitabine]",inhibition of mtDNA production (in words),[1],strongly blocked mtDNA production
